These results are taken from patent US9242977B2, “Trk-inhibiting compound” (ONO PHARMACEUTICAL CO., LTD., priority 2012, dated 2016).

One assay concerns the target c-Kit (Homo sapiens (Human), UniProt P10721). Put plainly: Enzyme inhibition activity test for kinases other than Trk (selectivity test): c-Kit. Format: biochemical. The note with it: test concentration 3 μM; read-out: Inhibition Rate (%) c-Kit. The protocol: (§1) A test substance (present compound or comparative compound) was dissolved in dimethylsulfoxide and further diluted with dimethylsulfoxide to prepare a solution having a concentration of 100 times the test concentration of 3 μM. The solution was further diluted to 25-fold with an assay buffer (20 mM HEPES, 0.01% Triton X-100, 2 mM DTT, pH 7.5) to obtain a test substance solution. In a similar manner a positive control substance solution was prepared with a positive control substance.
(§2) A 4-times concentration solution (5 μL) of the test substance prepared with the assay buffer, 5 μL of a 4-times concentration solution of substrate/ATP/metal (Mg) and 10 μL of a 2-times concentration solution of kinase were mixed in a well of a polypropylene 384-well plate and allowed to react at room temperature for 1 hour. The reaction was terminated by adding 60 μL of a Termination Buffer (QuickScout Screening Assist MSA; Carna Biosciences). The substrate peptide and the phosphorylated peptide in the reaction solution were separated and quantified. The kinase reaction was assessed from the product ratio (P/(P+S)) calculated from the height (S) of the peak of the substrate peptide and the height (P) of the peak of the phosphorylated peptide. Other kinases used in the kinase selectivity experiments were, for example, Abl, c-Met, b-Raf, c-Kit and KDR. The following Table 2 indicates substrates, substrate concentrations, ATP concentrations and positive control substances used in respective kinase enzyme inhibition activity tests.
(§3) The inhibition rate was calculated from the average signal intensity of the test wells containing respective test substances provided that the average signal intensity of control wells each containing all reaction components was 0% inhibition and the average signal intensity of background wells (without addition of the enzyme) was 100% inhibition.

Assay [1] has as its system NGF-induced vascular hyper permeability. Put plainly: Suppression of rat NGF-induced vascular hyper permeability (in vivo test, Evans Blue). The note with it: oral, 12 hours after administration, read-out: Rates of Suppression for Vascular Hyper Permeability (%). As to the method:
TrkA-inhibiting activity of the present compound was evaluated in vivo. The present compound dissolved in a medium was orally administered (adminstered volume: 5 mL/kg) to male CD(SD)IGS rats (7- to 9-week old, Charles River laboratories Japan, Inc.) shaved on the back. A medium was orally administered (adminstered volume: 5 mL/kg) to the control and normal groups. After 6 or 12 hours of administration, 3 μg/mL of a NGF (Mouse 2.5s, Natural, Invitrogen) solution prepared in 0.1% BSA (Sigma-Aldrich)-containing saline was intracutaneously administered (dose; 50 μL/site) at 3 sites on the back of animals under halothane anesthesia. For the normal group, 0.1% BSA-containing saline was intracutaneously administered (dose; 50 μL/site) at 3 sites on the back. Immediately after intracutaneous administration, 1% Evans Blue (Tokyo Chemical Industry Co., Ltd.) was administered intravenously from tail (adminstered volume: 3 mL/kg). After 10 minutes of administration, the animals were sacrificed by bleeding due to incision of the abdominal aorta. The sites of intracutaneous administration on the back (3 sites) were excised and the skin samples were respectively transferred to the wells in a 48-well plate (Asahi Glass Co., Ltd.). Formamide (0.8 mL/well) was added to the plate and the plate was sealed and incubated overnight at 60° C. The formamide extraction solution (200 μL) was transferred to a 96-well plate and the absorbance (wavelength: 620 nm) of Evans Blue extracted in formamide was measured on an absorbance microplate reader (SpectraMAX 190, Molecular Devices Japan, K.K.). Standard samples of Evans Blue dissolved in formamide (0, 0.78, 1.56, 3.13, 6.25, 12.5, 25 and 50 μg/mL) were measured at the same time for the absorbance (wavelength: 620 nm) to generate a calibration curve. Based on the calibration curve and the absorbances of samples, the concentrations of Evans Blue in the sample was calculated. The concentrations of Evans Blue for three skin samples collected from one aminal were averaged to obtain the vale for the animal. The rate of suppression for rat NGF-induced vascular hyper permeability of the present compound was calculated according to the following Equation 4: Suppression rate (%)=(1−(AX−AN)/(AC−AN)}×100 Equation 4
wherein AX: the concentration of Evans Blue of the test compound (an average value of 3 samples from one animal);
AN: the concentration of Evans Blue of the normal group (an average value of 3 samples from one animal);
AC: the concentration of Evans Blue of the control group (an average value of 3 samples from one animal).

The next assay addresses c-Met (Homo sapiens (Human), UniProt P08581). Put plainly: Enzyme inhibition activity test for kinases other than Trk (selectivity test): c-Met. The conditions noted are these: test concentration 3 μM; read-out: Inhibition Rate (%) c-Met. In kind it is biochemical. The protocol:
as §1, §2, §3

A further assay has as its target KDR (Homo sapiens (Human), UniProt P35968). Put plainly: Enzyme inhibition activity test for kinases other than Trk (selectivity test): KDR. Format: biochemical. The conditions noted are these: test concentration 3 μM; read-out: Inhibition Rate (%) KDR. As to the method: as §1, §2, §3
Another assay addresses Abl (Homo sapiens (Human), UniProt P00519). Put plainly: Enzyme inhibition activity test for kinases other than Trk (selectivity test): Abl. In kind it is biochemical. The note with it: test concentration 3 μM; read-out: Inhibition Rate (%) Abl. The protocol:
as §1, §2, §3

The target in a further assay is b-Raf (Homo sapiens (Human), UniProt P15056). In words: Enzyme inhibition activity test for kinases other than Trk (selectivity test): b-Raf. The note with it: test concentration 3 μM; read-out: Inhibition Rate (%) b-Raf. Format: biochemical. As to the method: as §1, §2, §3
Sequence of b-Raf (P15056 whole entry): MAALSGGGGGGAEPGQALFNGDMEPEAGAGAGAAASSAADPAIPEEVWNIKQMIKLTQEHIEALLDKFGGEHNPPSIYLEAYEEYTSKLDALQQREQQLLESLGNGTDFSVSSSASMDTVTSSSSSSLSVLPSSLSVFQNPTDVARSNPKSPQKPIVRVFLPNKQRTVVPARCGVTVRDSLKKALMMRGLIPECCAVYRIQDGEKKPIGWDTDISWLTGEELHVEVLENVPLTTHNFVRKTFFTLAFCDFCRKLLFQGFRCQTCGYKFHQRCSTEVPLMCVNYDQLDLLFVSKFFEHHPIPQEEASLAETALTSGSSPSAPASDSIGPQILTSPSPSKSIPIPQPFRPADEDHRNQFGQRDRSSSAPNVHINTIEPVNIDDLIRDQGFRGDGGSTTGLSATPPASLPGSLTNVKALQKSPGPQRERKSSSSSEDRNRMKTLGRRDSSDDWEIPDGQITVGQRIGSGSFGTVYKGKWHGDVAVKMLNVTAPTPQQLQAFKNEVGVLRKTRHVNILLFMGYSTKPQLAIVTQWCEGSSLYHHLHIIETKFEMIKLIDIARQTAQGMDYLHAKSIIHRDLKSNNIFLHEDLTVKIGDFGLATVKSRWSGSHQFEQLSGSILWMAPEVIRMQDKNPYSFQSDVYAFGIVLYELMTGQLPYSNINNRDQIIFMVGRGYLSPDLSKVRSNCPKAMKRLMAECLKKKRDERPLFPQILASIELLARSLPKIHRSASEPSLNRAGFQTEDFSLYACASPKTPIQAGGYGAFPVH

Sequence of Abl (P00519 whole entry): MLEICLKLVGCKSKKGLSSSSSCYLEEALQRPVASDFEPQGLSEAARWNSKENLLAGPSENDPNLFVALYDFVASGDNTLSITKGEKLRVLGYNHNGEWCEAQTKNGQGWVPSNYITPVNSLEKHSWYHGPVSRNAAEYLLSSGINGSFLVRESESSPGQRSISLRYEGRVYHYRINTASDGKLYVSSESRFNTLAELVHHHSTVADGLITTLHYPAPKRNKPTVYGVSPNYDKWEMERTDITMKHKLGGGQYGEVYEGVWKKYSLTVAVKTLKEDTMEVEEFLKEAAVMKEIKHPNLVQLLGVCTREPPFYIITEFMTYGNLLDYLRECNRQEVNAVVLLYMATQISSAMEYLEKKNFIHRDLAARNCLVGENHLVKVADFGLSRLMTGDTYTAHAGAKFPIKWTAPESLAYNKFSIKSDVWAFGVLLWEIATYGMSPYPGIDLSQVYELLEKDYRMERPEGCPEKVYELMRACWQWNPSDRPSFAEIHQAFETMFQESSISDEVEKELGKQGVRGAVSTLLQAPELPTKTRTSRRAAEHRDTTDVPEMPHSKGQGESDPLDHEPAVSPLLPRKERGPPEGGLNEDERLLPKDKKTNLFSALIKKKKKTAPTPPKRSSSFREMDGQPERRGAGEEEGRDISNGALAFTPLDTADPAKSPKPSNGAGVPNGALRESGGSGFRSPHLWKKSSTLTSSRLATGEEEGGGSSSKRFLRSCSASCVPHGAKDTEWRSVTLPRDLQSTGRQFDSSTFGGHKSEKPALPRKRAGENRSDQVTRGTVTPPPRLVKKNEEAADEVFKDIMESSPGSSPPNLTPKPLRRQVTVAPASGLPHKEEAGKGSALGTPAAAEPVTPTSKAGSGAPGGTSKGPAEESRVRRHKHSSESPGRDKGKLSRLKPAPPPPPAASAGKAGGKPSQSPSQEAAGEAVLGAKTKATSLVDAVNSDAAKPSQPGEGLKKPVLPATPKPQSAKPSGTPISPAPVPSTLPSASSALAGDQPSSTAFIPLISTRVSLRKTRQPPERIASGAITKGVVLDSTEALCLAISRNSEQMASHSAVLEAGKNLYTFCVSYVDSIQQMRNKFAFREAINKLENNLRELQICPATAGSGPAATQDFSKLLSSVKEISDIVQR
Sequence of KDR (P35968 20-1356): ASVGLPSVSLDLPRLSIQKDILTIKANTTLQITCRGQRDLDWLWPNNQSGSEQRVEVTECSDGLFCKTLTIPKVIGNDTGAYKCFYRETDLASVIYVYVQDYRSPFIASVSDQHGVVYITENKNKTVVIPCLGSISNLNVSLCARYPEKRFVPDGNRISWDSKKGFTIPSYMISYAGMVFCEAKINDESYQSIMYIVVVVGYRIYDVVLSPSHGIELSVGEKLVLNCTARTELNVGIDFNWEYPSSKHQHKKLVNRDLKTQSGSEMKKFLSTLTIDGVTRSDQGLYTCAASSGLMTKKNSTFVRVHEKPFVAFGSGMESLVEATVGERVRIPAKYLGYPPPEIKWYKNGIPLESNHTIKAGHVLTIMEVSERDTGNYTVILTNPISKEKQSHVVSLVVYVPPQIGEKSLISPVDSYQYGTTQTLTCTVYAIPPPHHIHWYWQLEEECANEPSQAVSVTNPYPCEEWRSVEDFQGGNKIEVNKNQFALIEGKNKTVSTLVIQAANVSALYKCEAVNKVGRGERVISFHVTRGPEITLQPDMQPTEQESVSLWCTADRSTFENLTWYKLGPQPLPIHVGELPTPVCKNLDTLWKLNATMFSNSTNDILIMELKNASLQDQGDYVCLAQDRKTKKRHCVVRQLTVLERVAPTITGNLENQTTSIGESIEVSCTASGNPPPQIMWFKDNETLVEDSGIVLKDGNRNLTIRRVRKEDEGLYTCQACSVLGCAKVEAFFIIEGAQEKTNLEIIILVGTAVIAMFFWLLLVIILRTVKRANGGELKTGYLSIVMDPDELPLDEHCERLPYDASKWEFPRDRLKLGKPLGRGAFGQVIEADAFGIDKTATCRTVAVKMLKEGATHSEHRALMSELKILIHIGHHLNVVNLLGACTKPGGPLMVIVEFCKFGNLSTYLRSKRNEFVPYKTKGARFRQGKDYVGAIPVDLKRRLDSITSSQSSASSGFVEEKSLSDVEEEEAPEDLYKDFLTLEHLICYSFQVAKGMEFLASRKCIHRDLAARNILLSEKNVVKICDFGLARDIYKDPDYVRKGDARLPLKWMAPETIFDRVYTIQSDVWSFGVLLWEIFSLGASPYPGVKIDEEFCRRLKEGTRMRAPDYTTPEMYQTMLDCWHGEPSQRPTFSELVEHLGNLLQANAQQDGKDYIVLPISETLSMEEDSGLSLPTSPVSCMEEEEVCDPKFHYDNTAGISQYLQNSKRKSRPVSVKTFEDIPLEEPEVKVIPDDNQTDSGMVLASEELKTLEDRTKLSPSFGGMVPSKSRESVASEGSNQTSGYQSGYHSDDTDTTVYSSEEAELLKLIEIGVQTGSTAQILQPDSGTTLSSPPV
Sequence of c-Met (P08581 25-1390): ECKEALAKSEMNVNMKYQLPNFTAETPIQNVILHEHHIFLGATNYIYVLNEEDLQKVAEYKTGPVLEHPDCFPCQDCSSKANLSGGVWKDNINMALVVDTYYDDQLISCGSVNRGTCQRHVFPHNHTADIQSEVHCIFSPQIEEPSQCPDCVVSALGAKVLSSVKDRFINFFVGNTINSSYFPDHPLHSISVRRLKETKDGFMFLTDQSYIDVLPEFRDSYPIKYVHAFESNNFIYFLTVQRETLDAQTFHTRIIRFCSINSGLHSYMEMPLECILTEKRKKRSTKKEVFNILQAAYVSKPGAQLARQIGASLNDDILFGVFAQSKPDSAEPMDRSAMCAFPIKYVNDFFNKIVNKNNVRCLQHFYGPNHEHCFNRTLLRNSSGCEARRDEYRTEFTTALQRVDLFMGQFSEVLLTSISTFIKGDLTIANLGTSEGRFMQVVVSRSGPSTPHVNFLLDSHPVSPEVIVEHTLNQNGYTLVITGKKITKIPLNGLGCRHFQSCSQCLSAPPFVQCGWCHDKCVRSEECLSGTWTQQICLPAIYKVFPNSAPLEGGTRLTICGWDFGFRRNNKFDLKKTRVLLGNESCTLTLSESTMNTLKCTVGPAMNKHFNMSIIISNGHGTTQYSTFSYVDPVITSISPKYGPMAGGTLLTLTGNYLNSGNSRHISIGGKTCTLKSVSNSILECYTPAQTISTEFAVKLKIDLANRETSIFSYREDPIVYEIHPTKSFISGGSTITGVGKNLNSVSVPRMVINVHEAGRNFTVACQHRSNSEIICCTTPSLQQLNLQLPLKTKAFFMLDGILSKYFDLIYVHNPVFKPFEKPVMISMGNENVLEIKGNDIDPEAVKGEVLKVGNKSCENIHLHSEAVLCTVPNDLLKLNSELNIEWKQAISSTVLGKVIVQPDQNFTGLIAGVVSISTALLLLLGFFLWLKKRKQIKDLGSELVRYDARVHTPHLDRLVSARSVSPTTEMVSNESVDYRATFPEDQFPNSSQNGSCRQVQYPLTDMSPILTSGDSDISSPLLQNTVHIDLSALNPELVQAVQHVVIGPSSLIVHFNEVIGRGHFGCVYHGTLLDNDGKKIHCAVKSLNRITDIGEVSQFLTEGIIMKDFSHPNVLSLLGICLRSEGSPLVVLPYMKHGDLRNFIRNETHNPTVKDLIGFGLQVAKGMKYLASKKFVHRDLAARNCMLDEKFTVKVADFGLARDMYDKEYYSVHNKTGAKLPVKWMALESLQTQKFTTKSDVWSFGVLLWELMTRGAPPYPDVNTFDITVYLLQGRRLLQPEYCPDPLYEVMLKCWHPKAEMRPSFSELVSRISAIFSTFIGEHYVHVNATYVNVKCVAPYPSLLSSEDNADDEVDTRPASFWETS

In the case of `O=C(Nc1cnc(Oc2ccc(-c3cnc(N4CCCC4=O)s3)cc2)nc1)Nc1cc(C(F)(F)F)ccc1-c1cccnc1` [Example 84-3, 1-(2-{4-[2-(2-oxo-1-pyrrolidinyl)-1,3-thiazol-5-yl]phenoxy}-5-pyrimidinyl)-3-[2-(3-pyridinyl)-5-(trifluoromethyl)phenyl]urea], the inhibition (usually the change of the read-out against control, counted positive when it falls) at 3 µM came to 28% at c-Kit; 11% at c-Met; 5.2% on KDR; 5.6% on Abl; 36% on b-Raf. Moreover, the inhibition in vivo at 1 mg/kg in assay [1] is 94%.
